According to the supplement of paper PMC8612539:
Converted amounts (≈) assume the structure as drawn.

System: Histophilus somni
Assay: minimum inhibitory concentration (MIC)
Protocol: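 Broth microdilution MIC (Sensititre BOPO7F bovine plate, CLSI methods) of 19 antimicrobials against field isolates of P. multocida, M. haemolytica, H. somni (deep nasopharyngeal swabs) and E. coli, Enterococcus spp. (rectal swabs) from weaned dairy heifers. Incubation 16-24 h at 35 C. MIC is the lowest concentration preventing visible growth. Values with <= or > lie at the tested range limits. Trimethoprim-sulfamethoxazole is given as the trimethoprim component of a 1:19 mixture.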

CN[C@@H]1[C@H](O)[C@H](NC)[C@H]2O[C@@]3(O)C(=O)C[C@@H](C)O[C@H]3O[C@@H]2[C@H]1O [Spectinomycin]
Conditions | minimum inhibitory concentration [µg/mL]
isolate (source animal id): 3 | > 64
isolate (source animal id): 4 | > 64
isolate (source animal id): 7 | ≤ 8
isolate (source animal id): 14 | 16 (≈ 48.1 µM)
isolate (source animal id): 15 | > 64
isolate (source animal id): 17 | ≤ 8
isolate (source animal id): 18 | > 64
isolate (source animal id): 20 | 16 (≈ 48.1 µM)
isolate (source animal id): 23 | 16 (≈ 48.1 µM)
isolate (source animal id): 45 | 16 (≈ 48.1 µM)
isolate (source animal id): 53 | ≤ 8
isolate (source animal id): 83 | ≤ 8
isolate (source animal id): 88 | > 64
isolate (source animal id): 92 | 32 (≈ 96.3 µM)
isolate (source animal id): 93 | 64 (≈ 193 µM)
isolate (source animal id): 99 | 16 (≈ 48.1 µM)
isolate (source animal id): 100 | 16 (≈ 48.1 µM)
isolate (source animal id): 105 | 16 (≈ 48.1 µM)
isolate (source animal id): 107 | 16 (≈ 48.1 µM)
isolate (source animal id): 108 | 16 (≈ 48.1 µM)
isolate (source animal id): 109 | 16 (≈ 48.1 µM)
isolate (source animal id): 110 | 32 (≈ 96.3 µM)
isolate (source animal id): 117 | > 64
isolate (source animal id): 121 | > 64
isolate (source animal id): 123 | > 64
isolate (source animal id): 124 | > 64
isolate (source animal id): 127 | > 64
isolate (source animal id): 128 | > 64
isolate (source animal id): 130 | > 64
isolate (source animal id): 132 | > 64
isolate (source animal id): 135 | ≤ 8
isolate (source animal id): 140 | > 64
isolate (source animal id): 141 | 16 (≈ 48.1 µM)
isolate (source animal id): 142 | 32 (≈ 96.3 µM)
isolate (source animal id): 144 | > 64
isolate (source animal id): 146 | 64 (≈ 193 µM)
isolate (source animal id): 147 | 16 (≈ 48.1 µM)
isolate (source animal id): 151 | > 64
isolate (source animal id): 153 | > 64
isolate (source animal id): 154 | 16 (≈ 48.1 µM)
isolate (source animal id): 156 | 16 (≈ 48.1 µM)
isolate (source animal id): 157 | > 64
isolate (source animal id): 176 | > 64
isolate (source animal id): 183 | > 64
isolate (source animal id): 186 | > 64
isolate (source animal id): 196 | > 64
isolate (source animal id): 198 | > 64
isolate (source animal id): 200 | > 64
isolate (source animal id): 206 | > 64
isolate (source animal id): 208 | > 64
isolate (source animal id): 210 | > 64
isolate (source animal id): 212 | > 64
isolate (source animal id): 215 | > 64
isolate (source animal id): 216 | > 64
isolate (source animal id): 218 | > 64
isolate (source animal id): 219 | > 64
isolate (source animal id): 224 | > 64
isolate (source animal id): 228 | > 64
isolate (source animal id): 230 | > 64
isolate (source animal id): 233 | 64 (≈ 193 µM)
isolate (source animal id): 238 | > 64
isolate (source animal id): 239 | > 64
isolate (source animal id): 241 | > 64
isolate (source animal id): 242 | > 64
isolate (source animal id): 243 | > 64
isolate (source animal id): 245 | ≤ 8
isolate (source animal id): 246 | > 64
isolate (source animal id): 247 | > 64
isolate (source animal id): 248 | ≤ 8
isolate (source animal id): 250 | > 64
isolate (source animal id): 251 | > 64
isolate (source animal id): 252 | 64 (≈ 193 µM)
isolate (source animal id): 254 | > 64
isolate (source animal id): 258 | > 64
isolate (source animal id): 259 | > 64
isolate (source animal id): 262 | > 64
isolate (source animal id): 264 | 32 (≈ 96.3 µM)
isolate (source animal id): 265 | 16 (≈ 48.1 µM)
isolate (source animal id): 266 | > 64
isolate (source animal id): 267 | > 64
isolate (source animal id): 269 | > 64
isolate (source animal id): 271 | > 64
isolate (source animal id): 272 | 16 (≈ 48.1 µM)
isolate (source animal id): 274 | > 64
isolate (source animal id): 276 | ≤ 8
isolate (source animal id): 278 | > 64
isolate (source animal id): 280 | 16 (≈ 48.1 µM)
isolate (source animal id): 281 | > 64
isolate (source animal id): 283 | > 64
isolate (source animal id): 288 | > 64
isolate (source animal id): 291 | > 64
isolate (source animal id): 292 | > 64
isolate (source animal id): 296 | > 64
isolate (source animal id): 306 | > 64
isolate (source animal id): 336 | > 64
isolate (source animal id): 337 | > 64
isolate (source animal id): 341 | > 64
